Test results reported in US20180110754A1, “CENICRIVIROC FOR THE TREATMENT OF FIBROSIS” (Tobira Therapeutics, Inc., priority 2015, published 2018).

Experiment: Study 202: fasting metabolic laboratory parameters
Format: in vivo
Source text: All abnormalities in total cholesterol, LDL cholesterol, triglycerides, or glucose were Grade 1 or Grade 2.
Mean baseline values and changes from baseline in HbA1c, HOMA-IR, fasting LDL, fasting HDL, fasting total cholesterol, fasting total cholesterol/HDL ratio, and fasting triglycerides are shown in Table 36.

[1] = All CVC (N = 115), EFV (N = 28), through Week 48
[2] = CVC 100 mg (N = 58), through Week 48
[3] = CVC 200 mg (N = 57), through Week 48

## CCCCOCCOc1ccc(-c2ccc3c(c2)/C=C(/C(=O)Nc2ccc([S@@+]([O-])Cc4cncn4CCC)cc2)CCCN3CC(C)C)cc1 [CVC, (S)-8-[4-(2-Butoxyethoxy)phenyl]-1-isobutyl-N-(4-{[(1-propyl-1H-imidazol-5-yl)methyl]sulfinyl}phenyl)-1,2,3,4-tetrahydro-1-benzazocine-5-carboxamide]
[1]
  Any graded (Grade 1-4) fasting laboratory abnormality, n subjects: 16
  Fasting LDL cholesterol abnormality, any grade, n subjects: 6
  Fasting LDL cholesterol, worst Grade 1, n subjects: 3
  Fasting LDL cholesterol, worst Grade 2, n subjects: 3
  Fasting LDL cholesterol, worst Grade 3, n subjects: 0
  Fasting LDL cholesterol, worst Grade 4, n subjects: 0
  Fasting glucose (serum, high) abnormality, any grade, n subjects: 5
  Fasting glucose (serum, high), worst Grade 1, n subjects: 3
  Fasting glucose (serum, high), worst Grade 2, n subjects: 2
  Fasting glucose (serum, high), worst Grade 3, n subjects: 0
  Fasting glucose (serum, high), worst Grade 4, n subjects: 0
  Fasting laboratory abnormality, worst Grade 1, n subjects: 9
  Fasting laboratory abnormality, worst Grade 2, n subjects: 7
  Fasting laboratory abnormality, worst Grade 3, n subjects: 0
  Fasting laboratory abnormality, worst Grade 4, n subjects: 0
  Fasting total cholesterol abnormality, any grade, n subjects: 8
  Fasting total cholesterol, worst Grade 1, n subjects: 5
  Fasting total cholesterol, worst Grade 2, n subjects: 3
  Fasting total cholesterol, worst Grade 3, n subjects: 0
  Fasting total cholesterol, worst Grade 4, n subjects: 0
  Fasting triglycerides abnormality, any grade, n subjects: 1
  Fasting triglycerides, worst Grade 1, n subjects: 0
  Fasting triglycerides, worst Grade 2, n subjects: 1
  Fasting triglycerides, worst Grade 3, n subjects: 0
  Fasting triglycerides, worst Grade 4, n subjects: 0
[2]
  Any graded (Grade 1-4) fasting laboratory abnormality, n subjects: 4 (7%)
  Fasting LDL cholesterol abnormality, any grade, n subjects: 2 (3%)
  Fasting LDL cholesterol, worst Grade 1, n subjects: 1 (2%)
  Fasting LDL cholesterol, worst Grade 2, n subjects: 1 (2%)
  Fasting LDL cholesterol, worst Grade 3, n subjects: 0
  Fasting LDL cholesterol, worst Grade 4, n subjects: 0
  Fasting glucose (serum, high) abnormality, any grade, n subjects: 0
  Fasting glucose (serum, high), worst Grade 1, n subjects: 0
  Fasting glucose (serum, high), worst Grade 2, n subjects: 0
  Fasting glucose (serum, high), worst Grade 3, n subjects: 0
  Fasting glucose (serum, high), worst Grade 4, n subjects: 0
  Fasting laboratory abnormality, worst Grade 1, n subjects: 3 (5%)
  Fasting laboratory abnormality, worst Grade 2, n subjects: 1 (2%)
  Fasting laboratory abnormality, worst Grade 3, n subjects: 0
  Fasting laboratory abnormality, worst Grade 4, n subjects: 0
  Fasting total cholesterol abnormality, any grade, n subjects: 3 (5%)
  Fasting total cholesterol, worst Grade 1, n subjects: 3 (5%)
  Fasting total cholesterol, worst Grade 2, n subjects: 0
  Fasting total cholesterol, worst Grade 3, n subjects: 0
  Fasting total cholesterol, worst Grade 4, n subjects: 0
  Fasting triglycerides abnormality, any grade, n subjects: 0
  Fasting triglycerides, worst Grade 1, n subjects: 0
  Fasting triglycerides, worst Grade 2, n subjects: 0
  Fasting triglycerides, worst Grade 3, n subjects: 0
  Fasting triglycerides, worst Grade 4, n subjects: 0
[3]
  Any graded (Grade 1-4) fasting laboratory abnormality, n subjects: 12
  Fasting LDL cholesterol abnormality, any grade, n subjects: 4
  Fasting LDL cholesterol, worst Grade 1, n subjects: 2
  Fasting LDL cholesterol, worst Grade 2, n subjects: 2
  Fasting LDL cholesterol, worst Grade 3, n subjects: 0
  Fasting LDL cholesterol, worst Grade 4, n subjects: 0
  Fasting glucose (serum, high) abnormality, any grade, n subjects: 5
  Fasting glucose (serum, high), worst Grade 1, n subjects: 3
  Fasting glucose (serum, high), worst Grade 2, n subjects: 2
  Fasting glucose (serum, high), worst Grade 3, n subjects: 0
  Fasting glucose (serum, high), worst Grade 4, n subjects: 0
  Fasting laboratory abnormality, worst Grade 1, n subjects: 6
  Fasting laboratory abnormality, worst Grade 2, n subjects: 6
  Fasting laboratory abnormality, worst Grade 3, n subjects: 0
  Fasting laboratory abnormality, worst Grade 4, n subjects: 0
  Fasting total cholesterol abnormality, any grade, n subjects: 5
  Fasting total cholesterol, worst Grade 1, n subjects: 2
  Fasting total cholesterol, worst Grade 2, n subjects: 3
  Fasting total cholesterol, worst Grade 3, n subjects: 0
  Fasting total cholesterol, worst Grade 4, n subjects: 0
  Fasting triglycerides abnormality, any grade, n subjects: 1
  Fasting triglycerides, worst Grade 1, n subjects: 0
  Fasting triglycerides, worst Grade 2, n subjects: 1
  Fasting triglycerides, worst Grade 3, n subjects: 0
  Fasting triglycerides, worst Grade 4, n subjects: 0
Week 4, All CVC, EFV
  Fasting HDL, mean change from baseline: -2.92 mg/dL
  Fasting LDL, mean change from baseline: -9.72 mg/dL
  Fasting total cholesterol, mean change from baseline: -14 mg/dL
  Fasting triglycerides, mean change from baseline: -5 mg/dL
  HOMA-IR, mean change from baseline: −0.30
  HbA1c, mean change from baseline: −0.03 % Hb
Week 4, CVC 100 mg
  Fasting HDL, mean change from baseline: -3.98 mg/dL
  Fasting LDL, mean change from baseline: -10.90 mg/dL
  Fasting total cholesterol, mean change from baseline: -16 mg/dL
  Fasting triglycerides, mean change from baseline: -8 mg/dL
  HOMA-IR, mean change from baseline: 0.11
  HbA1c, mean change from baseline: 0.01 % Hb
Week 4, CVC 200 mg
  Fasting HDL, mean change from baseline: -1.84 mg/dL
  Fasting LDL, mean change from baseline: -8.46 mg/dL
  Fasting total cholesterol, mean change from baseline: -12 mg/dL
  Fasting triglycerides, mean change from baseline: -2 mg/dL
  HOMA-IR, mean change from baseline: −0.71
  HbA1c, mean change from baseline: −0.08 % Hb
Week 12, All CVC, EFV
  Fasting HDL, mean change from baseline: -2.09 mg/dL
  Fasting LDL, mean change from baseline: -11.44 mg/dL
  Fasting total cholesterol, mean change from baseline: -17 mg/dL
  Fasting triglycerides, mean change from baseline: -15 mg/dL
  HOMA-IR, mean change from baseline: −0.56
  HbA1c, mean change from baseline: −0.06 % Hb
Week 12, CVC 100 mg
  Fasting HDL, mean change from baseline: -2.96 mg/dL
  Fasting LDL, mean change from baseline: -11.20 mg/dL
  Fasting total cholesterol, mean change from baseline: -17 mg/dL
  Fasting triglycerides, mean change from baseline: -16 mg/dL
  HOMA-IR, mean change from baseline: −0.59
  HbA1c, mean change from baseline: −0.04 % Hb
Week 12, CVC 200 mg
  Fasting HDL, mean change from baseline: -1.22 mg/dL
  Fasting LDL, mean change from baseline: -11.69 mg/dL
  Fasting total cholesterol, mean change from baseline: -16 mg/dL
  Fasting triglycerides, mean change from baseline: -13 mg/dL
  HOMA-IR, mean change from baseline: −0.53
  HbA1c, mean change from baseline: −0.08 % Hb
Week 24, All CVC, EFV
  Fasting HDL, mean change from baseline: -1.45 mg/dL
  Fasting LDL, mean change from baseline: -8.64 mg/dL
  Fasting total cholesterol, mean change from baseline: -13 mg/dL
  Fasting triglycerides, mean change from baseline: -15 mg/dL
  HOMA-IR, mean change from baseline: −0.68
  HbA1c, mean change from baseline: 0.06 % Hb
Week 24, CVC 100 mg
  Fasting HDL, mean change from baseline: -2.15 mg/dL
  Fasting LDL, mean change from baseline: -10.21 mg/dL
  Fasting total cholesterol, mean change from baseline: -14 mg/dL
  Fasting triglycerides, mean change from baseline: -8 mg/dL
  HOMA-IR, mean change from baseline: −1.42
  HbA1c, mean change from baseline: 0.06 % Hb
Week 24, CVC 200 mg
  Fasting HDL, mean change from baseline: -0.71 mg/dL
  Fasting LDL, mean change from baseline: -6.93 mg/dL
  Fasting total cholesterol, mean change from baseline: -12 mg/dL
  Fasting triglycerides, mean change from baseline: -23 mg/dL
  HOMA-IR, mean change from baseline: 0.15
  HbA1c, mean change from baseline: 0.06 % Hb
Week 48, All CVC, EFV
  Fasting HDL, mean change from baseline: -0.96 mg/dL
  Fasting LDL, mean change from baseline: -8.49 mg/dL
  Fasting total cholesterol, mean change from baseline: -12 mg/dL
  Fasting triglycerides, mean change from baseline: -12 mg/dL
  HOMA-IR, mean change from baseline: −0.76
  HbA1c, mean change from baseline: 0.10 % Hb
Week 48, CVC 100 mg
  Fasting HDL, mean change from baseline: -1.63 mg/dL
  Fasting LDL, mean change from baseline: -11.16 mg/dL
  Fasting total cholesterol, mean change from baseline: -14 mg/dL
  Fasting triglycerides, mean change from baseline: -9 mg/dL
  HOMA-IR, mean change from baseline: −1.56
  HbA1c, mean change from baseline: 0.09 % Hb
Week 48, CVC 200 mg
  Fasting HDL, mean change from baseline: -0.21 mg/dL
  Fasting LDL, mean change from baseline: -5.20 mg/dL
  Fasting total cholesterol, mean change from baseline: -9 mg/dL
  Fasting triglycerides, mean change from baseline: -16 mg/dL
  HOMA-IR, mean change from baseline: 0.17
  HbA1c, mean change from baseline: 0.10 % Hb
Through Week 48
  Change in fasting cholesterol (total, LDL, HDL) during treatment: A decrease was observed
